Consider ten molecules from ChEMBL document CHEMBL1821660, “Synthesis and biological activity of a novel class nicotinic acetylcholine receptors (nAChRs) ligands structurally related to anatoxin-a” (Bioorg Med Chem Lett, 2011).

The target in assay [1] is Acetylcholine receptor subunit alpha (Homo sapiens, UniProt P02708). As to the kind of experiment: Binding affinity to alpha1 nAchR expressed in human TE671 cells. It is filed as cell-based, TE-671.
For assay [2], the target named is Neuronal acetylcholine receptor subunit alpha-7 (Homo sapiens, UniProt P36544). As to the kind of experiment: Displacement of [125I]-alpha-bungarotoxin from alpha7 nAchR expressed in rat GH4C1 cells. It is filed as cell-based, GH4-C1.
Sequence of Neuronal acetylcholine receptor subunit alpha-7 (P36544 whole entry): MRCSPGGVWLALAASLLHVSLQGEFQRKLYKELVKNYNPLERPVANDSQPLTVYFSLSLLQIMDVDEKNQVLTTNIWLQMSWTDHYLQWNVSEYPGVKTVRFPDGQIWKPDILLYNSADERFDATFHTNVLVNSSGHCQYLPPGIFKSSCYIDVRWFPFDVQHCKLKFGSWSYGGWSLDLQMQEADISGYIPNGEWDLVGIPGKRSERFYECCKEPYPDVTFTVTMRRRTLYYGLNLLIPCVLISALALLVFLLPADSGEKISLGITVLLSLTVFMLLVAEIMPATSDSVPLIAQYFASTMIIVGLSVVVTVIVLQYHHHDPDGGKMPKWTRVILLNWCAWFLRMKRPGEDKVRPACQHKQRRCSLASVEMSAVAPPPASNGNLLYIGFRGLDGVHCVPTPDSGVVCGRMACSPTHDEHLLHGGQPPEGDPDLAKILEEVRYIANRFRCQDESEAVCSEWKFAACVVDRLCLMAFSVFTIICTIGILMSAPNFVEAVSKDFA
The target in assay [3] is Neuronal acetylcholine receptor; alpha3/beta4 (Homo sapiens, UniProt P30926+P32297). In words: Displacement of [3H]-epibatidine from alpha3beta4 nAChR expressed in human IMR32 cells after 2 hrs by scintillation counting. It is filed as cell-based, IMR-32. On the technique in general: In a radioligand displacement assay an active substance lowers the binding of a labelled ligand.
Sequence of Neuronal acetylcholine receptor; alpha3/beta4 (P30926 whole entry): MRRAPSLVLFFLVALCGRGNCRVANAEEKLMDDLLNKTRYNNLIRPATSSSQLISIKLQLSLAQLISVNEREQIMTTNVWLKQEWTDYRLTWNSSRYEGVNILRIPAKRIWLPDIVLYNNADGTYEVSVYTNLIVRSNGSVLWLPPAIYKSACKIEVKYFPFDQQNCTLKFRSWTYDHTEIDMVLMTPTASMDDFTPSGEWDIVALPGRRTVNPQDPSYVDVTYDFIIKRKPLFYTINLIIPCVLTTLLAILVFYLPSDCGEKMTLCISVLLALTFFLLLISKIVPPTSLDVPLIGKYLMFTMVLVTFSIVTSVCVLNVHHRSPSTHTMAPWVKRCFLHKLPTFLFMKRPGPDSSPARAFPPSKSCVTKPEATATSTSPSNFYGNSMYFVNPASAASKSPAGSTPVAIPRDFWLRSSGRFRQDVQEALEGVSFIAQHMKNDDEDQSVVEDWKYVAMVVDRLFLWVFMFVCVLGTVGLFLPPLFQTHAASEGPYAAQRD
Sequence of Neuronal acetylcholine receptor; alpha3/beta4 (P32297 whole entry): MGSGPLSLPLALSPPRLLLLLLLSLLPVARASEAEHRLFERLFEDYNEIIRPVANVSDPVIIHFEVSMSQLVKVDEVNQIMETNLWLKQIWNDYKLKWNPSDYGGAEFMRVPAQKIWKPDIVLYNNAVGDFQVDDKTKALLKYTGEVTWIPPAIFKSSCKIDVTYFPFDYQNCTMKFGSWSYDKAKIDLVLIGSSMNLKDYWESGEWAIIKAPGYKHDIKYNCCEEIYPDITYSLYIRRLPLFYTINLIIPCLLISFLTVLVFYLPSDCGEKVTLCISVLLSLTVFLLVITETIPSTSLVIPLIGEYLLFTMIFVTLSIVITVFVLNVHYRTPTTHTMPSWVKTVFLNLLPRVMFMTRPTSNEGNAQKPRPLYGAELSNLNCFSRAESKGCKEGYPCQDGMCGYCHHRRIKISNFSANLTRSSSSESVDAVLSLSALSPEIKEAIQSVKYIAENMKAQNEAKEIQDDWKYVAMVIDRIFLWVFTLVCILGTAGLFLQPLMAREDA

A short description of assay [4]: Displacement of [3H]-cytisine from nAChR in rat brain membranes. It is filed as cell membranes.

Sequence of Acetylcholine receptor subunit alpha (P02708 whole entry): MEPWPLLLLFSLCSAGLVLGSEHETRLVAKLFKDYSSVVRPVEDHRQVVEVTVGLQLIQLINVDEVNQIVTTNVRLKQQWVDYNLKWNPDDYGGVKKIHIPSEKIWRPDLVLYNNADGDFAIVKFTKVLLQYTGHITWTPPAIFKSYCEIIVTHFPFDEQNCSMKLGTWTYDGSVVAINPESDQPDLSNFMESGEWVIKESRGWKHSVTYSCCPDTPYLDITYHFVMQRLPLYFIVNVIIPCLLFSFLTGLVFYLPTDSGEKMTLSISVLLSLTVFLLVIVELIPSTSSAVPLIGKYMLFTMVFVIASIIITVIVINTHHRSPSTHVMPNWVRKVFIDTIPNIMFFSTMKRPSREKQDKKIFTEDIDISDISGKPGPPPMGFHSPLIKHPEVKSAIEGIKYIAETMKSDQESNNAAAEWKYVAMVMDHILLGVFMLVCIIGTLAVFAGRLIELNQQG

Usually IC50 stands for the midpoint of a concentration-inhibition curve. Consider `CCOC(=O)c1noc2c1[C@H]1CC[C@@H](CC2)N1` (racemic), for which the IC50 in assay [1], in assay [2], in assay [3] and in assay [4] was > 10 µM throughout.
Take `CCOC(=O)c1cc(C2=CCC[C@@H]3CC[C@H]2N3)on1` (racemic): the concentration for half-maximal inhibition (IC50) in assay [1], in assay [2], in assay [3] and in assay [4] was > 10 µM throughout.
As to `Cc1cc(C2=CCC[C@@H]3CC[C@H]2N3)on1` (racemic), the IC50 in assay [2] is > 10 µM; in assay [3], > 10 µM; in assay [4], 0.0091 µM.
For `Cc1cc([C@@]2(O)CCC[C@@H]3CC[C@H]2N3)on1` (racemic), the IC50 in assay [1], in assay [2], in assay [3] and in assay [4] was > 10 µM throughout.
On to `Cc1cc([C@]2(O)CCC[C@@H]3CC[C@H]2N3)on1` (racemic), for which the 50% inhibitory concentration (IC50) in assay [1], in assay [2], in assay [3] and in assay [4] was > 10 µM each time.
Consider `C1=C(c2cc(-c3ccccc3)no2)[C@H]2CC[C@@H](CC1)N2` (racemic), for which the IC50 in assay [1] is 7.8 µM; in assay [2], > 10 µM; in assay [3], 1.05 µM; in assay [4], > 10 µM.
`Cc1noc2c1[C@H]1CC[C@@H](CC2)N1` (racemic): the IC50 in assay [1], in assay [2], in assay [3] and in assay [4] was > 10 µM throughout.
Regarding `CCc1cc(C2=CCC[C@@H]3CC[C@H]2N3)on1` (racemic), the IC50 was found to be 4.2 µM in assay [1], 4.6 µM in assay [2], 1.8 µM in assay [3] and 0.0122 µM in assay [4].
`CN1CCC[C@H]1c1cccnc1` [NICOTINE] gave an IC50 in assay [4] of 0.0047 µM.
For `CC(C)c1cc(C2=CCC[C@@H]3CC[C@H]2N3)on1` (racemic), the IC50 in assay [1] was 5.5 µM; in assay [2], 15.1 µM; in assay [3], 2.9 µM; in assay [4], 2.1 µM.
